{
  "source": "patent US20250114377A1",
  "about": "“TWO-PRONGED TREATMENT FOR NIEMANN PICK TYPE C DISEASE” (UNIVERSITY OF NOTRE DAME DU LAC, priority 2022, published 2025)",
  "key": {"[1]": {"test_system": "StARD9(−/−)/NPC1 (I1061T/I1061T) mice", "assay": "27-HC treatment of mice mutant for both NPC1 and StARD9 / StARD9 knock-out mice", "assay_type": "in vivo", "conditions": "5 mg/kg three times per week oral gavage; vs NPC1 (I1061T/I1061T) mice; p=0.0001", "experimental": "FIG. 12. Impact of 27-HC Treatment on NPC1 (I1061T/I1061T)/StARD9 (−/−) Mice. Kaplan-Meier lifespan analysis of NPC1 (I1061T/I1061T) mice (solid line) to StARD9(−/−)/NPC1 (I1061T/I1061T) mice (dashed line) each treated with 5 mg/kg 27-HC three times per week by oral gavage.\nMutations in the NPC1 gene affect two independent lysosomal functions. The first is the generation of lysosomal tubules as a mechanism to deliver intracellular cholesterol to other membrane-bound compartments. Because this function is impaired in NPC disease, we investigated the protein components necessary for tubule projection. We identified 27-HC as a signaling molecule that stimulates lysosomal tubulation and is not provided properly to lysosomal membrane to elicit tubulation in NPC disease. To correct this defect, we provide pure 27-HC in a cocktail that bypasses endocytosis. […] We have also tested this therapy in two different transgenic strains of mice with NPC1 mutations. […] Because we know the molecular target for 27-HC (StARD9), we tested 27-HC treatment in mice where we removed the StARD9 gene. […] This confirms the molecular target for 27-HC treatment and is consistent with our proposed model for the defects in NPC disease. Independent of the role for NPC1 in lysosomal tubulation, NPC1 is the “receptor” for the pro-apoptotic protein STING. […]"}, "NPC mutant mice": {"test_system": "NPC mutant mice", "assay": "Therapeutic administration of 27-HC in two transgenic strains of mice with NPC1 mutations (summary)", "assay_type": "in vivo", "excerpt": "Mutations in the NPC1 gene affect two independent lysosomal functions. The first is the generation of lysosomal tubules as a mechanism to deliver intracellular cholesterol to other membrane-bound compartments. Because this function is impaired in NPC disease, we investigated the protein components necessary for tubule projection. We identified 27-HC as a signaling molecule that stimulates lysosomal tubulation and is not provided properly to lysosomal membrane to elicit tubulation in NPC disease. To correct this defect, we provide pure 27-HC in a cocktail that bypasses endocytosis. […] We have also tested this therapy in two different transgenic strains of mice with NPC1 mutations. […] Because we know the molecular target for 27-HC (StARD9), we tested 27-HC treatment in mice where we removed the StARD9 gene. […] This confirms the molecular target for 27-HC treatment and is consistent with our proposed model for the defects in NPC disease. Independent of the role for NPC1 in lysosomal tubulation, NPC1 is the “receptor” for the pro-apoptotic protein STING. STING is a signaling molecule that is activated by cell insults, including defective cholesterol transport. Once STING is activated, it triggers programmed cell death pathways. Counteracting STING activation, STING is silenced by binding to lysosomes, which leads to STING degradation and inactivation of this pathway. This silencing is required to prevent STING activation to proceed long-term. We recently discovered that the “receptor” on lysosomes that drives STING silencing is also NPC1. In cells mutant for NPC1, STING silencing is impaired, thereby leading to programmed cell death. As a result, NPC1 mutations cause cell death in two different ways. They cause loss of lysosomal tubulation, and they cause perpetual activation of STING.\nWe further propose that NPC1 is required for two functions in cells. The first is cholesterol transport from the lysosome to ER. If this activity is impaired, cells are “starved” of cholesterol in the ER. This has consequences for cholesterol metabolism and activates STING. Second, NPC1 in the lysosome is the receptor for STING that is required for STING silencing. In the absence of NPC1, STING remains active after initial activation (Priming) but also amplifies the responses including apoptosis. The dual roles of NPC1 are consistent with results across the NPC field. First, this explains why our StARD9 (−/−) mice are less severe than NPC1 (−/−) mice. NPC1(−/−) mice cause STING activation and impair STING silencing. […] Second, NPC1 (−/−) mice are more severe than NPC1 (I1061 T/I1061 T) mice because the NPC1 […] mice must reduce STING activation and retain some STING silencing compared to nulls."}, "[2]": {"conditions": "in vivo", "experimental": "Studies have tested treatment 1× per week and 3× per week. However, from pharmacokinetic studies, it is known that 27-HC levels are only retained for 1-2 days. We will increase to daily treatment by oral gavage and measure serum levels of 27-HC to confirm maintenance of therapeutic levels. […] We will increase to higher doses by adding higher levels of DMSO to allow treatment with 20 mg/kg and 40 mg/kg.\nWe anticipate an increased benefit from treatment on a daily basis because the pharmacokinetics inform us about how long 27-HC remains in the blood (-100 ng/ml for 12 hours). For reference, children treated with Miglustat are dosed 3× per day. Higher doses of 27-HC and alternative cocktails are expected to reveal which parameters are more important for success. […] When crossed with NPC1(−/−) mice, they observe a significant decrease in NPC disease symptoms and an extension of lifespan (personal communication). This provides independent validation of the benefits associated with treatment with 27-HC. Finally, we expect improved outcomes for mice treated from conception over waiting until weaning (P21). This is because there is such a long window of brain development and maturation from conception to P21, that any developmental aspect of NPC disease would be well underway before we begin treatment at weaning."}, "[3]": {"conditions": "two transgenic strains with NPC1 mutations"}},
  "note": "Entries after “also recorded” stand apart in the source; their conditions may differ.",
  "data": [
    {"smiles": "C[C@@H](CO)CCC[C@@H](C)[C@H]1CC[C@H]2[C@@H]3CC=C4C[C@@H](O)CC[C@]4(C)[C@H]3CC[C@]12C", "note": "[27-HC, 27-hydroxycholesterol]", "values": [
      {"measurement": "Benefit of 27-HC treatment (lifespan) in mice lacking StARD9", "setting": "[1]", "result": "the benefit of the 27-HC treatment was lost; also recorded: significantly less effective; also recorded: does not provide any benefit"},
      {"measurement": "Overall improvement for NPC1 mutant mice", "setting": "NPC mutant mice; mouse, in vivo", "result": "statistically-significant improvement"},
      {"measurement": "Lifespan of mutant mice", "setting": "NPC mutant mice; [3]", "result": "extends the lifespan of mutant mice significantly"},
      {"measurement": "Lysosomal tubulation in NPC mutant mice", "setting": "NPC mutant mice; [3]", "result": "rescues lysosomal tubulation"},
      {"measurement": "Onset, severity and progression of NPC disease", "setting": "NPC mutant mice; [3]", "result": "delays the onset, severity and progression of NPC disease"},
      {"measurement": "How long 27-HC remains in the blood", "setting": "[2]", "result": 12, "unit": "h"},
      {"measurement": "Time 27-HC levels are retained", "setting": "[2]", "result": "1 to 2", "unit": "days"},
      {"measurement": "27-HC level in the blood", "setting": "[2]; 12 hours", "result": -100, "unit": "ng/mL"}
    ]}
  ]
}
